ChEMBL document CHEMBL1137942, “Design, synthesis, and biological activity of novel, potent, and selective (benzoylaminomethyl)thiophene sulfonamide inhibitors of c-Jun-N-terminal kinase” (J Med Chem, 2004)

How the values were obtained:
[1] = target: Tyrosine-protein kinase receptor UFO (Homo sapiens) (UniProt P30530); assay: Percentage activity of human Axl in the presence of 10 uM of compound and 10 uM of ATP in comparison with control
[2] = target: Platelet-derived growth factor receptor beta (Homo sapiens) (UniProt P09619); assay: Percentage activity of human PDGFR beta in the presence of 10 uM of compound and 10 uM of ATP in comparison with control
[3] = target: Tyrosine-protein kinase SYK (Homo sapiens) (UniProt P43405); assay: Percentage activity of human Syk in the presence of 10 uM of compound and 10 uM of ATP in comparison with control
[4] = target: Tyrosine-protein kinase Fes/Fps (Homo sapiens) (UniProt P07332); assay: Percentage activity of human Fes in the presence of 10 uM of compound and 10 uM of ATP in comparison with control
[5] = target: MAP kinase-activated protein kinase 5 (Homo sapiens) (UniProt Q8IW41); assay: Percentage activity of human PRAK in the presence of 10 uM of compound and 10 uM of ATP in comparison with control
Rattus norvegicus = species on record: Rattus norvegicus; assay: Percentage activity of rat AMPK in the presence of 10 uM of compound and 10 uM of ATP in comparison with control
[6] = target: Cyclin-dependent kinase 1/cyclin B (Homo sapiens) (UniProt P06493+P14635+Q8WWL7+O95067); assay: Percentage activity of human CDK1 (with cyclin B) in the presence of 10 uM of compound and 10 uM of ATP in comparison with control; type: protein-complex assay
[7] = target: RAC-gamma serine/threonine-protein kinase (Homo sapiens) (UniProt Q9Y243); assay: Percentage activity of human PKB gamma in the presence of 10uM of compound and 10uM of ATP in comparison with control
[8] = target: Proto-oncogene tyrosine-protein kinase Src (Homo sapiens) (UniProt P12931); assay: Percentage activity of human cSRC in the presence of 10 uM of compound and 10 uM of ATP in comparison with control
Proto-oncogene tyrosine-protein kinase Src (Homo sapiens), sequence (P12931 2-536 limits assumed): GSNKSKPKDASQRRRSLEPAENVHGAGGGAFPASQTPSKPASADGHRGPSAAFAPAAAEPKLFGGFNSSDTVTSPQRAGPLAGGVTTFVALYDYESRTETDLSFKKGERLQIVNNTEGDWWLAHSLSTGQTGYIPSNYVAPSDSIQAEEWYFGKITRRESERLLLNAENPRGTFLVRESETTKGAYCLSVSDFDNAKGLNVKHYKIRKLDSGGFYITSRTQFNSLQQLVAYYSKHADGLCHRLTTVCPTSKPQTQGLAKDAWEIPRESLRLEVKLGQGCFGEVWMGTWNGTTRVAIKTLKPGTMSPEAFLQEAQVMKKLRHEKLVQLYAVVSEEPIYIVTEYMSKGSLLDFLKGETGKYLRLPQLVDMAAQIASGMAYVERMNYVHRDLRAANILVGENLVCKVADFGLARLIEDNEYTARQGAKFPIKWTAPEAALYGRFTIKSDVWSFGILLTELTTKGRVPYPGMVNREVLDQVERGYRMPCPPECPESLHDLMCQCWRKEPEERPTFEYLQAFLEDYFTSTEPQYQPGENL

[9] = target: Casein kinase II (Homo sapiens) (UniProt P67870+P68400+P19784); assay: Percentage activity of human CK2 in the presence of 10 uM of compound and 10 uM of ATP in comparison with control; type: protein-complex assay
[10] = target: Ca2+/calmodulin-dependent protein kinase II (CaM kinase II) (Rattus norvegicus) (UniProt P11275+P08413+P15791+P11730); assay: Percentage activity of rat CaMKII in the presence of 10uM of compound and 10uM of ATP in comparison with control; type: protein assay
[11] = target: Protein kinase C iota type (Homo sapiens) (UniProt P41743); assay: Percentage activity of human PKC iota in the presence of 10 uM of compound and 10 uM of ATP in comparison with control
[12] = target: Mitogen-activated protein kinase 13 (Homo sapiens) (UniProt O15264); assay: Percentage activity of human SAPK4 in the presence of 10 uM of compound and 10 uM of ATP in comparison with control
[13] = target: BDNF/NT-3 growth factors receptor TrkB (Homo sapiens) (UniProt Q16620); assay: Percentage activity of human TrkB in the presence of 10 uM of compound and 10 uM of ATP in comparison with control
[14] = target: Rho-associated protein kinase 2 (Homo sapiens) (UniProt O75116); assay: Percentage activity of human ROCK-II in the presence of 10 uM of compound and 10 uM of ATP in comparison with control
[15] = target: Cyclin-dependent kinase 5/CDK5 activator 1 (Homo sapiens) (UniProt Q00535+Q15078); assay: Percentage activity of human CDK5 (with […]) in the presence of 10 uM of compound and 10 uM of ATP in comparison with control; type: protein-complex assay
[16] = target: cAMP-dependent protein kinase (PKA) (Homo sapiens) (UniProt P22694+P17612+P22612); assay: Percentage activity of human PKA in the presence of 10 uM of compound and 10 uM of ATP in comparison with control; type: protein assay
[17] = target: Mitogen-activated protein kinase 11 (Homo sapiens) (UniProt Q15759); assay: Percentage activity of human SAPK2b in the presence of 10 uM of compound and 10 uM of ATP in comparison with control
Mitogen-activated protein kinase 11 (Homo sapiens), sequence (Q15759 whole entry): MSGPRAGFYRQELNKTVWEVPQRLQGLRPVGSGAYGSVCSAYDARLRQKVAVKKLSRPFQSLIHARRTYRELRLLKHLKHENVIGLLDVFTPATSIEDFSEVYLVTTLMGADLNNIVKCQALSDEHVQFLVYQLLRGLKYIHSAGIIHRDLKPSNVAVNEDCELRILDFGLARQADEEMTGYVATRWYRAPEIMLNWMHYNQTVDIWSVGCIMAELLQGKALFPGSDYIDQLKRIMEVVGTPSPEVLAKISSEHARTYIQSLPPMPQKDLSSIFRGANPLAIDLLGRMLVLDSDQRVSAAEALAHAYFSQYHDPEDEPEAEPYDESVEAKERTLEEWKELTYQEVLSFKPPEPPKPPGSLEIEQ

[18] = target: Protein kinase C beta type (Homo sapiens) (UniProt P05771); assay: Percentage activity of human PKC betaII -His in the presence of 10 uM of compound and 10 uM of ATP in comparison with control
Protein kinase C beta type (Homo sapiens), sequence (P05771 2-671 limits assumed): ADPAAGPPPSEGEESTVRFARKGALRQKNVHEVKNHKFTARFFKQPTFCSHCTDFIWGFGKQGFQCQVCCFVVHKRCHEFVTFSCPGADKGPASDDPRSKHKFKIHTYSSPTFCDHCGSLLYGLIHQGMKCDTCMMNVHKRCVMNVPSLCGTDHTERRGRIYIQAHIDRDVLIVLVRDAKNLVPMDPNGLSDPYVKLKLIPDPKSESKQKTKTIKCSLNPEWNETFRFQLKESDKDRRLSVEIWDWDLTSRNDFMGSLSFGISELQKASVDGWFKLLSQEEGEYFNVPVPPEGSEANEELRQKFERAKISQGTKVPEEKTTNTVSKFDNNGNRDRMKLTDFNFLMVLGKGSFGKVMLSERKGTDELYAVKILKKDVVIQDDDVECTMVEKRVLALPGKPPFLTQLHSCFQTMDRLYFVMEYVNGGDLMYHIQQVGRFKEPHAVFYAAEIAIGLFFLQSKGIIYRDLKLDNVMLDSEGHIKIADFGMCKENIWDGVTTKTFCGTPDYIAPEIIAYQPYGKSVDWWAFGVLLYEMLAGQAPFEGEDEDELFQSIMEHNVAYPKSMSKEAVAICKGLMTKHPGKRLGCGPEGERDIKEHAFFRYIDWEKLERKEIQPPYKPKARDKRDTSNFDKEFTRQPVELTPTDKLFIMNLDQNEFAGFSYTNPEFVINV

[19] = target: Cyclin-dependent kinase 2/cyclin A (Homo sapiens) (UniProt P24941+P20248+P78396); assay: Percentage activity of human CDK2 (with cyclin A) in the presence of 10 uM of compound and 10 uM of ATP in comparison with control; type: protein-complex assay
[20] = target: Tyrosine-protein kinase ABL1 (Mus musculus) (UniProt P00520); assay: Percentage activity of mouse Abl in the presence of 10 uM of compound and 10 uM of ATP in comparison with control
Tyrosine-protein kinase ABL1 (Mus musculus), sequence (P00520 whole entry): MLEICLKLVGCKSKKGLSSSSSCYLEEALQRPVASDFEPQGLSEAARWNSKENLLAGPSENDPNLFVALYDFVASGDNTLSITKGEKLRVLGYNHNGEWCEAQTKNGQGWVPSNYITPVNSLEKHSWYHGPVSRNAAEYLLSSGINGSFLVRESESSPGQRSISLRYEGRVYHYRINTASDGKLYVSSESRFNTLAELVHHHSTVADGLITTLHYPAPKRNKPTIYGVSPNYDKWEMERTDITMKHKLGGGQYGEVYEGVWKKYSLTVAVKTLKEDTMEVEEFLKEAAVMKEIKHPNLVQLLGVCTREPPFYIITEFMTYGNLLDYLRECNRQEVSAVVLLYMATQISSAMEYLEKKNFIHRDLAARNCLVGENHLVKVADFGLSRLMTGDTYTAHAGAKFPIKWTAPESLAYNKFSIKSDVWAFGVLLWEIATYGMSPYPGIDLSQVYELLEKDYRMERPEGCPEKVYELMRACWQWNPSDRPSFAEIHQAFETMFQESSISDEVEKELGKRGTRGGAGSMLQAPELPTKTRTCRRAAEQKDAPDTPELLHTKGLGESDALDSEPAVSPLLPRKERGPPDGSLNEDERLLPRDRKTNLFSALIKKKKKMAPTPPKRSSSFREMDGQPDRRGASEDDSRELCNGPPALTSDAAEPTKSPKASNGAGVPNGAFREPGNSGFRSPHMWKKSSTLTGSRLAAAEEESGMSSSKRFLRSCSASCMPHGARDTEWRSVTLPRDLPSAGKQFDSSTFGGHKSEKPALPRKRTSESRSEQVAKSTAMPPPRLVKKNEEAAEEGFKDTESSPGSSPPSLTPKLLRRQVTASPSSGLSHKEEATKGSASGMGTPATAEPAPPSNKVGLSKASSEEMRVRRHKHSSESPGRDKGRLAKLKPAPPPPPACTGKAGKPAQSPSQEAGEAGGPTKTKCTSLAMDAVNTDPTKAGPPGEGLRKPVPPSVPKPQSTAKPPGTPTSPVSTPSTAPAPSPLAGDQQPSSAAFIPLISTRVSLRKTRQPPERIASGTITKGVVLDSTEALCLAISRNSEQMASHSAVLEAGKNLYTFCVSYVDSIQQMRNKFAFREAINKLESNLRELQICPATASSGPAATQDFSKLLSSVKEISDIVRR

[21] = target: Protein kinase C epsilon type (Homo sapiens) (UniProt Q02156); assay: Percentage activity of human PKC epsilon in the presence of 10 uM of compound and 10 uM of ATP in comparison with control
[22] = target: Mitogen-activated protein kinase 1 (Homo sapiens) (UniProt P28482); assay: Percentage activity of human MAPK2 in the presence of 10 uM of compound and 10 uM of ATP in comparison with control
SCG = assay: Cell activity of JNK inhibitors in neuronal apoptosis assay in SCG cells, percentage rescued neurons at 3uM compound concentration after 24 hours; type: functional, Rattus norvegicus
[23] = target: Protein kinase C alpha type (Homo sapiens) (UniProt P17252); assay: Percentage activity of human PKC alpha -His in the presence of 10 uM of compound and 10 uM of ATP in comparison with control
[24] = target: Cytoplasmic tyrosine-protein kinase BMX (Homo sapiens) (UniProt P51813); assay: Percentage activity of human Bmx in the presence of 10uM of compound and 10uM of ATP in comparison with control
Cytoplasmic tyrosine-protein kinase BMX (Homo sapiens), sequence (P51813 whole entry): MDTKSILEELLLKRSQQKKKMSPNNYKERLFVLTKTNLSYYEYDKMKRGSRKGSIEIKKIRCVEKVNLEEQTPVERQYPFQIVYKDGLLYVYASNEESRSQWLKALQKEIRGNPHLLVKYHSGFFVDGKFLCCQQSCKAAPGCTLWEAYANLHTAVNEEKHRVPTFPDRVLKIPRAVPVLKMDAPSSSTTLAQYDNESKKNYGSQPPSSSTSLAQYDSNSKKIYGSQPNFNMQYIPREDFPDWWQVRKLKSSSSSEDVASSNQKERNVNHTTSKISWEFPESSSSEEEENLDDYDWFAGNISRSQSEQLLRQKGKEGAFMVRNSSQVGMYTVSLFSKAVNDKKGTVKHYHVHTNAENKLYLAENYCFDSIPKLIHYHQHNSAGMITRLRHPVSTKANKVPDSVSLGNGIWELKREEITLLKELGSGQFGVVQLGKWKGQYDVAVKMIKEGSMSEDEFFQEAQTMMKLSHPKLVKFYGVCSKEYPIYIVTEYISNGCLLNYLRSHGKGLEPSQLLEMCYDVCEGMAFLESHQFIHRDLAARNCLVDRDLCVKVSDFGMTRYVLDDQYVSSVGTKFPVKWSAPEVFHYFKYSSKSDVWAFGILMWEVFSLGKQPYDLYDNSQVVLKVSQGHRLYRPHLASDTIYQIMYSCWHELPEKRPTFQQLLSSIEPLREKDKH

[25] = target: Tyrosine-protein kinase Yes (Homo sapiens) (UniProt P07947); assay: Percentage activity of human Yes in the presence of 10 uM of compound and 10 uM of ATP in comparison with control
[26] = target: Platelet-derived growth factor receptor (Homo sapiens) (UniProt P09619+P16234); assay: Percentage activity of human PDGFR alpha in the presence of 10 uM of compound and 10 uM of ATP in comparison with control; type: protein-complex assay
[27] = target: Dual specificity mitogen-activated protein kinase kinase 4 (Mus musculus) (UniProt P47809); assay: Percentage activity of mouse MKK4 in the presence of 10 uM of compound and 10 uM of ATP in comparison with control
[28] = target: Insulin receptor (Homo sapiens) (UniProt P06213); assay: Percentage activity of human IR in the presence of 10 uM of compound and 10 uM of ATP in comparison with control
Insulin receptor (Homo sapiens), sequence (P06213 28-758 limits assumed): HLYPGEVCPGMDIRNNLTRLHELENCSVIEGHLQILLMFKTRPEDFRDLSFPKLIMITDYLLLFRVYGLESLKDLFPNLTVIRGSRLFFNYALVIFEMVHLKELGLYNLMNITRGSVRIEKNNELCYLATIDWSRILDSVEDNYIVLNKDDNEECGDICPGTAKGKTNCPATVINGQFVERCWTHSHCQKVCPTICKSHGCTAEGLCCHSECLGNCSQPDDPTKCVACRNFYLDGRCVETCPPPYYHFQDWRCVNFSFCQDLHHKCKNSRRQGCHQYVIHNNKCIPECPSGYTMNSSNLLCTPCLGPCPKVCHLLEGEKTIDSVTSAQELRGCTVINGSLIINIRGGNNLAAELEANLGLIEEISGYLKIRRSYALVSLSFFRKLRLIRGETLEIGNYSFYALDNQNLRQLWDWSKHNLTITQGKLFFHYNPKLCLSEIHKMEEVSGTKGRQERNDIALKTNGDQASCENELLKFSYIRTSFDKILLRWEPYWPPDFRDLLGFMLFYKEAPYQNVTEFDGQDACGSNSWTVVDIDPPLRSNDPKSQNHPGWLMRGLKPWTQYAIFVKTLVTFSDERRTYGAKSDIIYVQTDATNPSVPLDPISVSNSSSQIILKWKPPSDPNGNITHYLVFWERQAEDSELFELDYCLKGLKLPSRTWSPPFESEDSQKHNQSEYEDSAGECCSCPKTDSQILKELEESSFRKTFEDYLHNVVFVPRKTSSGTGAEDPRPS
Insulin receptor (Homo sapiens), sequence (P06213 763-1382 limits assumed): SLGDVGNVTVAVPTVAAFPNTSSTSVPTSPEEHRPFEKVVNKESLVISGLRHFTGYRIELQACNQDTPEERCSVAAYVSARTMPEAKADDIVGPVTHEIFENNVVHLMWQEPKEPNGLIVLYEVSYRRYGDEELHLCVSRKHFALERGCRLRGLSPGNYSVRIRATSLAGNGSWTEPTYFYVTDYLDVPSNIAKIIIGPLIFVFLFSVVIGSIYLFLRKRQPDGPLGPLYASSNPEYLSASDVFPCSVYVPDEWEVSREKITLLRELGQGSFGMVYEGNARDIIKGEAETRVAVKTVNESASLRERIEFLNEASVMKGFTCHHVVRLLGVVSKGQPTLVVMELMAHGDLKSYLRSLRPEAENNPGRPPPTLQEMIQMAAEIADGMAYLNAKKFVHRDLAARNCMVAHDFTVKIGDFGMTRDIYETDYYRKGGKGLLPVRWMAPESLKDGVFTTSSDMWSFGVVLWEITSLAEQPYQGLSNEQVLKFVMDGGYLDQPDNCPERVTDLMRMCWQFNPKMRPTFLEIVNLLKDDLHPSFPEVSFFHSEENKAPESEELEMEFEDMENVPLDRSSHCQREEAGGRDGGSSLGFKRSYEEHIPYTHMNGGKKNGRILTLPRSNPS

O=C(NCc1ccc(S(=O)(=O)N2CCC(n3nnc4ccccc43)CC2)s1)c1ccc(Cl)cc1
Activity [1]: 134%
Activity [2]: 91%
Activity [3]: 75%
Activity [4]: 134%
Activity [5]: 74%
Activity (Rattus norvegicus): 90%
Activity [6]: 102%
Activity [7]: 76%
Activity [8]: 67%
Activity [9]: 99%
Activity [10]: 93%
Activity [11]: 99%
Activity [12]: 101%
Activity [13]: 83%
Activity [14]: 101%
Activity [15]: 103%
Activity [16]: 78%
Activity [17]: 100%
Activity [18]: 88%
Activity [19]: 99%
Activity [20]: 80%
Activity [21]: 95%
Activity [22]: 106%
Rescued neurons (SCG): 22.9%
Activity [23]: 101%
Activity [24]: 88%
Activity [25]: 61%
Activity [26]: 103%
Activity [27]: 112%
Activity [28]: 103%
